Laboratory results as given in publication PMC11378028 (RSC Advances, 2024).
≈ marks a conversion by molar mass, not a printed value. One block for each compound: values may come before it.

What was measured:
E. coli DNA gyrase = E. coli DNA gyrase (Escherichia coli, UniProt P0AES6); experiment: DNA gyrase supercoiling plate assay; type: biochemical; conditions: for IC50: IC50 E. coli gyrase, supercoiling assay; for remaining activity at 1 µM / remaining activity at 0.1 µM: read-out: RA (residual activity) E. coli gyrase
S. aureus ATCC 29213 = experiment: MIC, broth microdilution; type: cell-based, Staphylococcus aureus; conditions: Staphylococcus aureus, ATCC29213, read-out: MIC S. aureus ATCC 29213, broth microdilution
E. coli topoisomerase IV = E. coli topoisomerase IV (Escherichia coli, UniProt P20083); experiment: topoisomerase IV relaxation plate assay; type: biochemical
[1] = tested on: S. aureus ATCC 43300 (MRSA); experiment: MIC, broth microdilution; type: cell-based; conditions: Staphylococcus aureus, ATCC43300|MRSA, read-out: MIC S. aureus ATCC 43300 (MRSA)
[2] = tested on: S. aureus ATCC 700699 (VISA); experiment: MIC, broth microdilution; type: cell-based; conditions: Staphylococcus aureus, ATCC700699|VISA, read-out: MIC S. aureus ATCC 700699 (VISA)
E. coli ATCC 25922 = experiment: MIC, broth microdilution; type: cell-based; conditions: Escherichia coli, ATCC25922, read-out: MIC E. coli ATCC 25922
P. aeruginosa ATCC 27853 = experiment: MIC, broth microdilution; type: cell-based; conditions: Pseudomonas aeruginosa, ATCC27853, read-out: MIC P. aeruginosa ATCC 27853
A. baumannii ATCC 17978 = experiment: MIC, broth microdilution; type: cell-based; conditions: Acinetobacter baumannii, ATCC17978, read-out: MIC A. baumannii ATCC 17978
A. baumannii ATCC 19606 = experiment: MIC, broth microdilution; type: cell-based; conditions: Acinetobacter baumannii, ATCC19606, read-out: MIC A. baumannii ATCC 19606
K. pneumoniae ATCC 10031 = experiment: MIC, broth microdilution; type: cell-based; conditions: Klebsiella pneumoniae, ATCC10031, read-out: MIC K. pneumoniae ATCC 10031
[3] = tested on: K. pneumoniae ATCC 700603; experiment: MIC, broth microdilution; type: cell-based; conditions: Klebsiella pneumoniae, ATCC700603, read-out: MIC K. pneumoniae ATCC 700603
[4] = tested on: E. spp. cloacae ATCC 13047; experiment: MIC, broth microdilution; type: cell-based; conditions: read-out: MIC E. spp. cloacae ATCC 13047
K. aerogenes ATCC 13408 = experiment: MIC, broth microdilution; type: cell-based; conditions: Klebsiella aerogenes, ATCC13408, read-out: MIC K. aerogenes ATCC 13408
[5] = target: human DNA topoisomerase IIα (Homo sapiens, UniProt P11388); experiment: human DNA topoisomerase IIα inhibition; type: biochemical; conditions: read-out: RA (residual activity) Human topo IIα
E. faecalis ATCC 29212 = experiment: MIC, broth microdilution; type: cell-based; conditions: Enterococcus faecalis, ATCC29212, read-out: MIC E. faecalis ATCC 29212
[6] = read-out: RA (residual activity) E. coli topo IV

Sequence of E. coli topoisomerase IV (P20083 whole entry): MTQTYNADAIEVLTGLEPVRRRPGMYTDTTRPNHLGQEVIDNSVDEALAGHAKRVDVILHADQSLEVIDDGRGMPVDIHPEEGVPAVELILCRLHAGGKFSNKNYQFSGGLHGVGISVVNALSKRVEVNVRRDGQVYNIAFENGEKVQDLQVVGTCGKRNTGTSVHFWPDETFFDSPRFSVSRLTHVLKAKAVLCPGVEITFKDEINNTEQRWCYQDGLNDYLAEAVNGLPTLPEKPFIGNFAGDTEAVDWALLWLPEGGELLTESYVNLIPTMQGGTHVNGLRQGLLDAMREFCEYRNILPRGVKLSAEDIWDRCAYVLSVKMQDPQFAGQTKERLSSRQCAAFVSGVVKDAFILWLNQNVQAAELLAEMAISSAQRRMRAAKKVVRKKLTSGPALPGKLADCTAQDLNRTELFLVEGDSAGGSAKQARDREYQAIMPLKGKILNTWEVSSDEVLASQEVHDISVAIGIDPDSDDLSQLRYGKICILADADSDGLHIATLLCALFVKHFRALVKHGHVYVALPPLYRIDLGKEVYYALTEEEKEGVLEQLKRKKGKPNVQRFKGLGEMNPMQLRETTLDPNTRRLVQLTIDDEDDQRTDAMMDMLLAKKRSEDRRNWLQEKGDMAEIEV
Sequence of E. coli topoisomerase IV (P0AFI2 whole entry partner): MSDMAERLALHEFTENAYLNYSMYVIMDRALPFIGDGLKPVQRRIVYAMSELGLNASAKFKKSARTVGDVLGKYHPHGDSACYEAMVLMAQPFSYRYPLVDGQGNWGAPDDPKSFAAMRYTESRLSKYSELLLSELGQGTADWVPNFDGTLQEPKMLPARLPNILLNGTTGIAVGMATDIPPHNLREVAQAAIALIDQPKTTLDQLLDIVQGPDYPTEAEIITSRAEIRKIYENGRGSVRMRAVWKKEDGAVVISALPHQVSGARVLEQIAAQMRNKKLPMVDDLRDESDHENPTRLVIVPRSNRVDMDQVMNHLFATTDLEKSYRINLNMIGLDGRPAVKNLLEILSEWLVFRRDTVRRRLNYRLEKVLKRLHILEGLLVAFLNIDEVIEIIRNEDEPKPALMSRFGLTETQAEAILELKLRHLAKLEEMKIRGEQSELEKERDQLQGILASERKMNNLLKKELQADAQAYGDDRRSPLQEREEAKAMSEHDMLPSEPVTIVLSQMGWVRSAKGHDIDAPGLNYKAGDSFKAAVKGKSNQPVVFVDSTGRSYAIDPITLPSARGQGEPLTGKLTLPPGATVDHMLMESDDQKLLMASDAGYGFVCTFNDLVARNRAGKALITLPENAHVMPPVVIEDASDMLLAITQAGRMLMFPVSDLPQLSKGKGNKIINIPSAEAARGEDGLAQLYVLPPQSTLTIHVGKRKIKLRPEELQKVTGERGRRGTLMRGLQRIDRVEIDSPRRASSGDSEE
Sequence of human DNA topoisomerase IIα (P11388 whole entry): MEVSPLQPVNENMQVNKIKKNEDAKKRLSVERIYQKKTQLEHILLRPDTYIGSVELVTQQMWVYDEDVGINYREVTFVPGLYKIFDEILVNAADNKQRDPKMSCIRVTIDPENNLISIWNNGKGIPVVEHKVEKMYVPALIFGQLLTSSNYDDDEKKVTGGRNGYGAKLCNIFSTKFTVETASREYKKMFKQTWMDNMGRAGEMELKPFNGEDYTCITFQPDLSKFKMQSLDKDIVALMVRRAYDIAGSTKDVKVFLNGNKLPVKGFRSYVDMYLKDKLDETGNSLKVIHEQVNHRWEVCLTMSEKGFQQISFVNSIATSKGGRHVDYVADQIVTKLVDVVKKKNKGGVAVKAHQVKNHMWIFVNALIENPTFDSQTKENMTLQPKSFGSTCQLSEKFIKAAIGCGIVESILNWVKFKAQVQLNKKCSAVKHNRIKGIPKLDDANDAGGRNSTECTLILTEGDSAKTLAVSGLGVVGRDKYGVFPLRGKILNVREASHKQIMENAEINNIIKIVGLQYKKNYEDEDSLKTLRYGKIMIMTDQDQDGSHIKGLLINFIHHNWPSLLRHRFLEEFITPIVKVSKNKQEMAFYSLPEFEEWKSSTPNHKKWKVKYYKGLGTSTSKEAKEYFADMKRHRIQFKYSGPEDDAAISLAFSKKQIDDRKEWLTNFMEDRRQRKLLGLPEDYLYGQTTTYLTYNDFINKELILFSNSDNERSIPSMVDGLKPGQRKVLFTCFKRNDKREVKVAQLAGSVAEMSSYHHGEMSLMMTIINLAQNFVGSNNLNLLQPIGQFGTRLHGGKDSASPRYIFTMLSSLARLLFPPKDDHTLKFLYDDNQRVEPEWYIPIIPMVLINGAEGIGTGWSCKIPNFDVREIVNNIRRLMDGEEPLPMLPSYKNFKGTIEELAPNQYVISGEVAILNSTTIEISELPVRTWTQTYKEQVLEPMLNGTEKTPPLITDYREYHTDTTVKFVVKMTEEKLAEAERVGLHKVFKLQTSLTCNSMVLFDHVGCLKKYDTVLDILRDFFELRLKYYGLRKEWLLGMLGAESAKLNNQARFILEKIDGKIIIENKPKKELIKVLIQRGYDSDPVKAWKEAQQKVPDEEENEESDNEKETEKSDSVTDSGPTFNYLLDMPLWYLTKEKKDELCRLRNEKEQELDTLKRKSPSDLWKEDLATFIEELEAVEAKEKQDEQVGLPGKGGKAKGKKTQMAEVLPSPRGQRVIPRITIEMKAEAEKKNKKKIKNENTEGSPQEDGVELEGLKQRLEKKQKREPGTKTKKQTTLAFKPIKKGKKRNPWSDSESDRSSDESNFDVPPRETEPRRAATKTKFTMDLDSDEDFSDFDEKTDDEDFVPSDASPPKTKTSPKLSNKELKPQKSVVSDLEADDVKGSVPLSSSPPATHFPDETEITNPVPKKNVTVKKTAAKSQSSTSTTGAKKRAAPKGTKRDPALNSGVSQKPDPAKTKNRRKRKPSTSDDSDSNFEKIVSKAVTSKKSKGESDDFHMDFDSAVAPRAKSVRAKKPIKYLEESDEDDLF

Compound: Cc1[nH]c(C(=O)Nc2ccc(C(=O)NCc3n[nH]c(=O)o3)cc2N2CCN(C(=O)OC(C)(C)C)CC2)c(Cl)c1Cl [Compound 13, tert-Butyl 4-(2-(3,4-dichloro-5-methyl-1H-pyrrole-2-carboxamido)-5-(((5-oxo-4,5-dihydro-1,3,4-oxadiazol-2-yl)methyl)carbamoyl)phenyl)piperazine-1-carboxylate]
IC50 (E. coli DNA gyrase): 483 nM
MIC (S. aureus ATCC 29213): 1 µg/mL (≈ 1.68 µM)

Compound: COC(=O)c1ccc(NC(=O)c2[nH]c(C)c(Cl)c2Cl)c(N2CCCC(CN)C2)c1.Cl (stereo not shown) [Compound 19i, (1-(2-(3,4-Dichloro-5-methyl-1H-pyrrole-2-carboxamido)-5-(methoxycarbonyl)phenyl)piperidin-3-yl)methanaminium chloride]
IC50 (E. coli DNA gyrase): 14.2 nM
IC50 (E. coli topoisomerase IV): 533 nM
MIC (S. aureus ATCC 29213): 8 µg/mL
MIC [1]: 2 µg/mL
MIC [2]: 1 µg/mL
MIC (E. coli ATCC 25922): 4 µg/mL
MIC (P. aeruginosa ATCC 27853): > 32 µg/mL
MIC (A. baumannii ATCC 17978): 8 µg/mL
MIC (A. baumannii ATCC 19606): 8 µg/mL
MIC (K. pneumoniae ATCC 10031): 8 µg/mL
MIC [3]: > 32 µg/mL
MIC [4]: > 64 µg/mL
MIC (K. aerogenes ATCC 13408): > 32 µg/mL

Compound: CC(C)(C)OC(=O)N[C@@H]1CCN(c2cc(C(=O)NCC(=O)O)ccc2NC(=O)c2cc(Br)c(Br)[nH]2)C1 [Compound 9c, (R)-(3-(3-((tert-Butoxycarbonyl)amino)pyrrolidin-1-yl)-4-(4,5-dibromo-1H-pyrrole-2-carboxamido)benzoyl)glycine]
IC50 (E. coli DNA gyrase): 5390 nM

Compound: Cc1[nH]c(C(=O)Nc2ccc(C(=O)NCC(=O)O)cc2N2CC[C@H](NC(=O)OC(C)(C)C)C2)c(Cl)c1Cl [Compound 8b, (S)-(3-(3-((tert-Butoxycarbonyl)amino)pyrrolidin-1-yl)-4-(3,4-dichloro-5-methyl-1H-pyrrole-2-carboxamido)benzoyl)glycine]
IC50 (E. coli DNA gyrase): 196 nM

Compound: Cc1[nH]c(C(=O)N(Cc2ccccc2)c2ccc(-c3n[nH]c(=O)o3)cc2)c(Cl)c1Cl [Compound 33, N-Benzyl-3,4-dichloro-5-methyl-N-(4-(5-oxo-4,5-dihydro-1,3,4-oxadiazol-2-yl)phenyl)-1H-pyrrole-2-carboxamide]
remaining activity at 1 µM (E. coli DNA gyrase): 81%
remaining activity at 100 µM [5]: 92%

Compound: Cc1[nH]c(C(=O)Nc2ccc(C(=O)O)cc2N2CCCC(CNC(=O)OC(C)(C)C)C2)c(Cl)c1Cl (stereo not shown) [Compound 18i, 3-(3-(((tert-Butoxycarbonyl)amino)methyl)piperidin-1-yl)-4-(3,4-dichloro-5-methyl-1H-pyrrole-2-carboxamido)benzoic acid]
remaining activity at 0.1 µM (E. coli DNA gyrase): 89%
remaining activity at 100 µM [5]: 128%
MIC (E. coli ATCC 25922): > 32 µg/mL
MIC (P. aeruginosa ATCC 27853): > 32 µg/mL
MIC (A. baumannii ATCC 19606): > 32 µg/mL
MIC [3]: > 32 µg/mL
MIC (K. aerogenes ATCC 13408): > 32 µg/mL

Compound: Cc1[nH]c(C(=O)Nc2ccc(C(=O)NCC(=O)O)cc2N2CC[C@@H](N)C2)c(Cl)c1Cl [Compound 10c, (R)-1-(5-((Carboxymethyl)carbamoyl)-2-(3,4-dichloro-5-methyl-1H-pyrrole-2-carboxamido)phenyl)pyrrolidin-3-aminium chloride]
IC50 (E. coli DNA gyrase): ~20 nM
remaining activity at 40 µM [5]: 112%

Compound: Cc1[nH]c(C(=O)Nc2ccc(C(=O)NCC(=O)O)cc2N2CCNCC2)c(Cl)c1Cl [Compound 10a, 4-(5-((Carboxymethyl)carbamoyl)-2-(3,4-dichloro-5-methyl-1H-pyrrole-2-carboxamido)phenyl)piperazin-1-ium chloride]
remaining activity at 1 µM (E. coli topoisomerase IV; [6]): 93%
remaining activity at 10 µM [5]: 78%

Compound: O=C(O)CNC(=O)c1ccc(NC(=O)c2cc(Br)c(Br)[nH]2)c(N2CCNCC2)c1 [Compound 11a, 4-(5-((Carboxymethyl)carbamoyl)-2-(4,5-dibromo-1H-pyrrole-2-carboxamido)phenyl)piperazin-1-ium chloride]
remaining activity at 40 µM [5]: 100%

Compound: Cc1[nH]c(C(=O)Nc2ccc(C(=O)NCC(=O)O)cc2N2CC[C@@H](NC(=O)OC(C)(C)C)C2)c(Cl)c1Cl [Compound 8c, (R)-(3-(3-((tert-Butoxycarbonyl)amino)pyrrolidin-1-yl)-4-(3,4-dichloro-5-methyl-1H-pyrrole-2-carboxamido)benzoyl)glycine]
IC50 (E. coli DNA gyrase): 162 nM

Compound: N[C@H]1CCN(c2cc(C(=O)NCC(=O)O)ccc2NC(=O)c2cc(Br)c(Br)[nH]2)C1 [Compound 11b, (S)-1-(5-((Carboxymethyl)carbamoyl)-2-(4,5-dibromo-1H-pyrrole-2-carboxamido)phenyl)pyrrolidin-3-aminium chloride]
IC50 (E. coli DNA gyrase): 235 nM

Compound: Cc1[nH]c(C(=O)Nc2ccc(C(=O)O)cc2N2CCC[C@H](NC(=O)OC(C)(C)C)C2)c(Cl)c1Cl [Compound 18c, (S)-3-(3-((tert-Butoxycarbonyl)amino)piperidin-1-yl)-4-(3,4-dichloro-5-methyl-1H-pyrrole-2-carboxamido)benzoic acid]
remaining activity at 1 µM (E. coli DNA gyrase): 67%
MIC (E. coli ATCC 25922): > 32 µg/mL
MIC (P. aeruginosa ATCC 27853): > 32 µg/mL
MIC (A. baumannii ATCC 19606): > 32 µg/mL
MIC [3]: > 32 µg/mL
MIC (K. aerogenes ATCC 13408): > 32 µg/mL

Compound: N[C@@H]1CCN(c2cc(C(=O)NCC(=O)O)ccc2NC(=O)c2cc(Br)c(Br)[nH]2)C1 [Compound 11c, (R)-1-(5-((Carboxymethyl)carbamoyl)-2-(4,5-dibromo-1H-pyrrole-2-carboxamido)phenyl)pyrrolidin-3-aminium chloride]
IC50 (E. coli DNA gyrase): 996 nM
remaining activity at 10 µM (E. coli topoisomerase IV; [6]): 75%

Compound: Cc1[nH]c(C(=O)Nc2ccc(C(=O)NCc3n[nH]c(=O)o3)cc2N2CCNCC2)c(Cl)c1Cl [Compound 14, 4-(2-(3,4-Dichloro-5-methyl-1H-pyrrole-2-carboxamido)-5-(((5-oxo-4,5-dihydro-1,3,4-oxadiazol-2-yl)methyl)carbamoyl)phenyl)piperazin-1-ium chloride]
IC50 (E. coli DNA gyrase): ~20 nM
remaining activity at 10 µM [5]: 111%

Compound: CC(C)(C)OC(=O)N1CCN(c2cc(C(=O)NCC(=O)O)ccc2NC(=O)c2cc(Br)c(Br)[nH]2)CC1 [Compound 9a, (3-(4-(tert-Butoxycarbonyl)piperazin-1-yl)-4-(4,5-dibromo-1H-pyrrole-2-carboxamido)benzoyl)glycine]
IC50 (E. coli DNA gyrase): 362 nM

Compound: CC(C)(C)OC(=O)N[C@H]1CCN(c2cc(C(=O)NCC(=O)O)ccc2NC(=O)c2cc(Br)c(Br)[nH]2)C1 [Compound 9b, (S)-(3-(3-((tert-Butoxycarbonyl)amino)pyrrolidin-1-yl)-4-(4,5-dibromo-1H-pyrrole-2-carboxamido)benzoyl)glycine]
IC50 (E. coli DNA gyrase): 4110 nM

Second part, the compound after the results:

remaining activity at 100 µM [5]: 98%
MIC (S. aureus ATCC 29213): > 64 µg/mL
MIC [1]: > 64 µg/mL
MIC (E. faecalis ATCC 29212): 1 µg/mL (≈ 2.21 µM)
MIC (E. coli ATCC 25922): > 64 µg/mL
MIC (P. aeruginosa ATCC 27853): > 64 µg/mL
MIC (A. baumannii ATCC 17978): > 64 µg/mL
MIC (K. pneumoniae ATCC 10031): > 64 µg/mL
MIC [4]: > 64 µg/mL
Compound: Cc1[nH]c(C(=O)Nc2ccc(-c3n[nH]c(=O)o3)cc2N2CCOC(C)C2)c(Cl)c1Cl (stereo not shown) [Compound 22f, 3,4-Dichloro-5-methyl-N-(2-(2-methylmorpholino)-4-(5-oxo-4,5-dihydro-1,3,4-oxadiazol-2-yl)phenyl)-1H-pyrrole-2-carboxamide]

remaining activity at 100 µM [5]: 97%
Compound: Cc1[nH]c(C(=O)Nc2ccc(-c3n[nH]c(=O)o3)cc2N2CC(C)OC(C)C2)c(Cl)c1Cl (stereo not shown) [Compound 22g, 3,4-Dichloro-N-(2-(2,6-dimethylmorpholino)-4-(5-oxo-4,5-dihydro-1,3,4-oxadiazol-2-yl)phenyl)-5-methyl-1H-pyrrole-2-carboxamide]

IC50 (E. coli DNA gyrase): 59 nM
remaining activity at 1 µM (E. coli topoisomerase IV; [6]): 104%
remaining activity at 100 µM [5]: 100%
Compound: Cc1[nH]c(C(=O)Nc2ccc(-c3n[nH]c(=O)o3)cc2N2CCN(C(=O)OC(C)(C)C)CC2)c(Cl)c1Cl [Compound 22a, tert-Butyl 4-(2-(3,4-dichloro-5-methyl-1H-pyrrole-2-carboxamido)-5-(5-oxo-4,5-dihydro-1,3,4-oxadiazol-2-yl)phenyl)piperazine-1-carboxylate]

RA (residual activity) E. coli gyrase (E. coli DNA gyrase; at 10 μM compound): 98% (10 μM)
RA (residual activity) E. coli topo IV (E. coli topoisomerase IV; at 1 μM compound): 103% (1 μM)
Compound: 4,5-Dibromo-N-(2-morpholino-4-(5-oxo-4,5-dihydro-1,3,4-oxadiazol-2-yl)phenyl)-1H-pyrrole-2-carboxamide [Compound 27a]

remaining activity at 0.1 µM (E. coli DNA gyrase): 90%
MIC (S. aureus ATCC 29213): 32 µg/mL (≈ 58 µM)
MIC (E. coli ATCC 25922): > 32 µg/mL
MIC (P. aeruginosa ATCC 27853): > 32 µg/mL
MIC (A. baumannii ATCC 19606): > 32 µg/mL
MIC [3]: > 32 µg/mL
MIC (K. aerogenes ATCC 13408): > 32 µg/mL
Compound: Cc1[nH]c(C(=O)Nc2ccc(-c3n[nH]c(=O)o3)cc2N2CCC[C@H](NC(=O)OC(C)(C)C)C2)c(Cl)c1Cl [Compound 22c, tert-Butyl (S)-(1-(2-(3,4-dichloro-5-methyl-1H-pyrrole-2-carboxamido)-5-(5-oxo-4,5-dihydro-1,3,4-oxadiazol-2-yl)phenyl)piperidin-3-yl)carbamate]
